Paper PMC9794587 (Frontiers in Pharmacology, 2022)
Where two headings read alike, the source gives them in different places. Where no end group is shown, it is not given here.

Legend:
[1] = Pharmacokinetics of BPC157 in beagle dogs after intravenous and intramuscular administration (plasma)
[2] = mice, rats, rabbits, or dogs; ref Xu et al., 2020; cited from earlier work
Description: Previously, we established a solid-phase synthesis process for BPC157 ([Xue et al., 2004]) and verified its biological activity in rat gastric ulcer models and various skin wound models ([Huang et al., 2015]). […] For evaluating its future clinical use as a therapeutic drug and follow-up clinical trials, the present study was undertaken to evaluate the pharmacokinetics, tissue distribution, metabolis ...

[3] = Pharmacokinetics of BPC157 in SD rats after intravenous and intramuscular administration (plasma, LC-MS/MS); conditions: for bioavailability: in vivo
[4] = can be stored at room temperature; ref Sikiric et al., 2018; cited from earlier work
Description: Body-protective compound (BPC) 157 is a peptide isolated from human gastric juice ([Sikiric et al., 1993]). BPC157 comprises 15 amino acids ([…]) and has a molecular weight of 1419 Da. […] BPC157 exerts a significant protective effect on various tissues and organs, such as th ...

[5] = dog, in vivo, im, t1/2
in vivo [6] = conditions: both, Sprague-Dawley, rat, iv, t1/2
in vivo [7] = conditions: both, beagle, dog, t1/2
[8] = rat, in vivo, im, t1/2
[9] = Radiometabolite profiling of [3H]BPC157 in rat plasma, urine, bile and feces (HPLC with radioactive detector, LC-MS/MS); assay type: in vivo, SD rats; conditions: for proportion of the bile sample radioactivity: single IM 100 µg/300 μCi/kg [3H]BPC157, mixed bile samples 0 to 72 h; for proportion of the total fecal radioactivity: single IM 100 µg/300 μCi/kg [3H]BPC157, feces 0 to 72 h; for proportion of the total radioactivity in urine: single IM 100 µg/300 μCi/kg [3H]BPC157, mixed urine samples 8 to 72 h
Method: Thirty intact SD rats, six JVC rats, and six BDC rats (half male and half female subjects) were injected intramuscularly with 100 µg/300 μCi/kg of [3H]BPC157. Whole blood and plasma samples of six JVC rats were collected at 0.05, 0.167, 0.5, 1, 2, 4, 8, 24, 48, and 72 h after administration (three males and three females at each time point) for the examination of radio pharmacokinetics of total plasma. Six intact SD rats were used for urinary, fecal, and biliary excretion studies. Urine and fecal samples were collected from each rat at 0–8, 8–24, 24–48, and 48–72 h. Animal carcasses were collected 72 h after administration. Bile excretion was studied in six SD rats with BDC. Bile, urine, and feces were collected 0–72 h after administration. Tissue distribution of BPC was studied in 24 intact SD rats. The rats were euthanized, and tissue samples (brain, heart, kidneys, liver, spleen, lung, stomach, intestine, muscle, grease, ovaries, womb, testicles, and thymus) were collected at 3 min, 10 min, 1 h, and 24 h after administration (three males and three females at each time point). Male SD rats were administered a single IM injection of blank solvent (excipient), and biological samples, including whole blood, plasma, urine, feces, and tissues, were collected for background control. The radioactivity of the plasma, tissue, bile, urinary, and fecal samples was analyzed using a liquid scintillation counter.
Plasma, bile, urine, and fecal samples of intact SD rats or BDC rats after a single administration of [3H]BPC157 were analyzed by HPLC combined with a low-energy radionuclide detection technique to obtain the radiometabolite profiles of [3H]BPC157. The structures of the main metabolites of [3H]BPC157 in rat plasma, bile, urine, and feces were analyzed and identified using LC-MS/MS and standard molecular weight comparison.

[10] = rat feces collected from 0 to 72 h after administration; conditions: SD rats, up to 72 h
[11] = rat bile collected from 0 to 72 h after administration (BDC rats); conditions: SD rats, up to 72 h
gastric juice = conditions: cited from earlier work
[12] = rat plasma collected after a single IM injection of [3H]BPC157; conditions: SD rats, up to 24 h
[13] = rat urine collected from 0 to 8 h and from 8 to 72 h after administration; conditions: SD rats, up to 72 h
[14] = both, beagle, dog, plasma, im, 6 μg/kg
[15] = both, beagle, dog, plasma, im, 30 μg/kg
[16] = both, beagle, dog, plasma, im, 150 μg/kg
[17] = both, beagle, dog, plasma, iv, 6 μg/kg
[18] = SD rats, single intravenous 20 μg/kg, plasma, LC-MS/MS, mean, n = 6
[19] = both, Sprague-Dawley, rat, plasma, im, 20 μg/kg
[20] = both, Sprague-Dawley, rat, plasma, im, 100 μg/kg
[21] = both, Sprague-Dawley, rat, plasma, im, 500 μg/kg
[22] = both, Sprague-Dawley, rat, plasma, iv, 20 μg/kg

CC(C)C[C@H](NC(=O)CNC(=O)[C@H](C)NC(=O)[C@H](CC(=O)O)NC(=O)[C@H](CC(=O)O)NC(=O)[C@H](C)NC(=O)[C@@H]1CCCN1C(=O)[C@H](CCCCN)NC(=O)CNC(=O)[C@@H]1CCCN1C(=O)[C@@H]1CCCN1C(=O)[C@@H]1CCCN1C(=O)[C@H](CCC(=O)O)NC(=O)CN)C(=O)N[C@H](C(=O)O)C(C)C [BPC157, Gly-Glu-Pro-Pro-Pro-Pro-Gly-Lys-Pro-Ala-Asp-Asp-Ala-Gly-Leu-Val]
dose proportionality (AUC0–t and Cmax vs dose) ([1]; beagle dogs, IM 6, 30, 150 μg/kg, linear regression): linear pharmacokinetic characteristics | elimination half-life of the prototype drug ([1]; beagle dogs, IV and IM, all doses, plasma): less than 30 min | detection of prototype drug in plasma 4 h after administration ([1]; beagle dogs, plasma, 4 h after administration): could not be detected | Cssav ([1]; beagle dogs, repeated intramuscular 30 μg/kg for seven consecutive days, Cssav = AUC0–t/τ, mean ± SD, n = 6): 0.108 ± 0.0177 ng/mL | Cssmin ([1]; beagle dogs, repeated intramuscular 30 μg/kg for seven consecutive days, Cssmin = (C-48h + C-24h + C0h)/3, mean ± SD, n = 6): 0.00285 ± 0.00698 ng/mL | time for plasma BPC157 to reach its peak ([1]; beagles, IM 6, 30, and 150 μg/kg): ≤ 9 min | AUC(0-inf) [1, 14]: 0.5 ng·h/mL | AUC(0-t) [1, 14]: 0.483 ng·h/mL | Cmax [1, 14]: 1.05 ± 0.429 ng/mL | MRT [1, 14]: 25.8 min | Tmax [1, 14]: 6.33 min | bioavailability [1, 14]: 45.3 ± 24.9% | AUC(0-inf) [1, 15]: 2.73 ng·h/mL | AUC(0-t) [1, 15]: 2.67 ng·h/mL | Cmax [1, 15]: 3.3 ± 0.508 ng/mL | MRT [1, 15]: 37 min | Tmax [1, 15]: 8.67 min | bioavailability [1, 15]: 47.6 ± 18.1% | AUC(0-inf) [1, 16]: 13.8 ng·h/mL | AUC(0-t) [1, 16]: 13.8 ng·h/mL | Cmax [1, 16]: 26.1 ± 7.82 ng/mL | MRT [1, 16]: 31.4 min | Tmax [1, 16]: 8.17 min | bioavailability [1, 16]: 50.6 ± 27% | AUC(0-inf) [1, 17]: 1.28 ng·h/mL | MRT [1, 17]: 2.49 min | clearance [1, 17]: 90.8 ± 40.1 mL/min/kg | Tmax ([1]; dog, in vivo, im): 10.5 min | Vd ([1]; dog, in vivo, iv, 6 ug/kg): 0.243 ± 0.162 L/kg | tolerability, serious toxic effects [2]: well tolerated and did not demonstrate any serious toxic effects | Cssav ([3]; SD rats, repeat intramuscular 100 μg/kg for seven consecutive days, Cssav = AUC0–t/τ, τ is the interval of administration): 0.290 ng/mL | Cssmin ([3]; SD rats, repeat intramuscular 100 μg/kg for seven consecutive days, Cssmin=(C-48h + C-24h + C0h)/3): 0 ng/mL | Tmax ([3]; SD rats, repeat intramuscular 100 μg/kg once a day for seven consecutive days, after last dose, plasma, LC-MS/MS, mean, n = 6): 3.00 min | Tmax ([3]; SD rats, single intramuscular 20 μg/kg, plasma, LC-MS/MS, mean, n = 6): 3 min | Tmax ([3]; SD rats, single intramuscular 100 μg/kg, plasma, LC-MS/MS, mean, n = 6): 3 min | Tmax ([3]; SD rats, single intramuscular 500 μg/kg, plasma, LC-MS/MS, mean, n = 6): 3 min | MRT [3, 18]: 0.727 min | Vss [3, 18]: 0.0364 L/kg | AUC(0-inf) [3, 19]: 1.25 ng·h/mL | AUC(0-t) [3, 19]: 1.25 ng·h/mL | Cmax [3, 19]: 12.3 ng/mL | MRT [3, 19]: 7.27 min | Tmax [3, 19]: 3 min | AUC(0-inf) [3, 20]: 4.83 ng·h/mL | AUC(0-t) [3, 20]: 4.82 ng·h/mL | Cmax [3, 20]: 48.9 ng/mL | MRT [3, 20]: 9.61 min | Tmax [3, 20]: 3 min | AUC(0-inf) [3, 21]: 32.2 ng·h/mL | AUC(0-t) [3, 21]: 32.2 ng·h/mL | Cmax [3, 21]: 141 ng/mL | MRT [3, 21]: 12.8 min | Tmax [3, 21]: 3 min | AUC(0-inf) [3, 22]: 6.67 ng·h/mL | AUC(0-t) [3, 22]: 6.65 ng·h/mL | clearance [3, 22]: 50.1 mL/min/kg | bioavailability ([3]; rat, im, 20 ug/kg): 18.8% | bioavailability ([3]; rat, im, 100 ug/kg): 14.5% | bioavailability ([3]; rat, im, 500 ug/kg): 19.4% | dose proportionality (AUC0–t and Cmax vs dose) ([3]; rats, IM 20, 100, 500 μg/kg, linear regression): linear pharmacokinetic characteristics | time for plasma BPC157 to reach its peak ([3]; rats, IM 20, 100, and 500 μg/kg): ≤ 9 min | elimination half-life of the prototype drug ([3]; rats, IV and IM, all doses, plasma): less than 30 min | detection of prototype drug in plasma 4 h after administration ([3]; rats, plasma, 4 h after administration): could not be detected | stability [4]: resistant to hydrolysis, enzyme digestion, and even gastric juice | half-life [5]: 19.6 ± 3.72 min | half-life (in vivo [6]): 15.2 min | half-life (in vivo [7]; im): 20 ± 5.53 min | half-life (in vivo [7]; iv): 5.27 ± 2.25 min | half-life [8]: 18.5 min

[3H]O[3H] [tritium water]
proportion of the bile sample radioactivity ([9]; female BDC rats): 91.2% | proportion of the total fecal radioactivity ([9]; female rats): 30.1% | proportion of the total radioactivity in urine ([9]; female rats): 69.5% | proportion of the bile sample radioactivity ([9]; male BDC rats): 91.0% | proportion of the total fecal radioactivity ([9]; male rats): 29.3% | proportion of the total radioactivity in urine ([9]; male rats): 75.3%

GEPPPPGKPADDAGLV
fragment found [10]: [^3H]proline (M1) | fragment found [11]: [^3H]proline (M1), major | not cleaved (gastric juice): resistant to hydrolysis, enzyme digestion, and even gastric juice | fragment found [12]: M1(Proline) and M2 and M3 and M4 and M5 and M6 | fragment found [13]: [^3H]proline (M1), major, 0 to 8 h
